Here are results for one molecule from patent US10695341B2, “Compositions and methods for treating endometriosis” (UNIVERSITY OF SOUTH FLORIDA, priority 2014, dated 2020).

One assay has as its system LC3-II. Kind of assay: LC3-II levels in IE cells after chloroquine. Format: cell-based, human. Conditions: chloroquine treatment.
For assay [1], the system named is Life-extended endometriotic (IE) cells. Kind of assay: Crystal violet growth/survival of life-extended endometriotic (IE) cells treated with chloroquine. The following applies: 25 μM chloroquine, up to about 96 hours, crystal violet absorbance. Format: cell-based, human. On the procedure: Life-extended endometriotic (IE) cells were treated with 25 μM chloroquine for up to about 96 hours. Cells were then stained with crystal violet and measured for overall growth at an absorbance of […], using a Bioteck plate reader.

For `CCN(CC)CCCC(C)Nc1ccnc2cc(Cl)ccc12` (centres unmarked) [chloroquine], the LC3-II levels result in the assay on LC3-II is “marked increase”. Moreover, in assay [1], the cellular survival entry was “dramatically inhibited”.
